Measurements from ChEMBL document CHEMBL1799987, “In vivo and in vitro SAR of tetracyclic MAPKAP-K2 (MK2) inhibitors. Part II” (Bioorg Med Chem Lett, 2010).
In brackets after ≈: the same amount, converted by molar mass.

Legend:
[1] = Thermodynamic solubility of the compound at pH 6.8; format: physicochemical; details: buffer, read-out: Therm_solubility
PBMC = test: cells; details: Homo sapiens
Mus musculus = species on record: Mus musculus; test: animal or person; details: OF1, po, 1 h, read-out: INH
Plasma = test: Plasma concentration in OF1 mouse at 100 mg/kg, po; format: ADME, organism-based; parameters: dose 100 mg/kg, route oral; details: in vivo

Row | solubility thermodynamic [1] [µM] | concentration (Plasma) [nM] | SMILES | IC50 (PBMC) [nM] | inhibition in vivo at 100 mg/kg (Mus musculus) [%]
1 | 8 (≈ 2.88 µg/mL) |  | O=C1NC2(CC2)Cc2[nH]c3c(c21)CCc1cnc(-c2ccccc2F)nc1-3 | 2300 | 
2 | < 5 |  | COc1ccc(-c2ncc3c(n2)-c2[nH]c4c(c2CC3)C(=O)NCC4)cc1 | 900 | 
3 | 10 (≈ 3.59 µg/mL) |  | O=C1NC2(CC2)Cc2[nH]c3c(c21)CCc1cnc(-c2ccccc2F)cc1-3 | 900 | 
4 | 373 (≈ 145 µg/mL) |  | CN1CC2(CNC(=O)c3c2[nH]c2c3CCc3cnc(-c4ccccc4F)nc3-2)C1 | 1600 | 
5 | 11 (≈ 3.67 µg/mL) |  | O=C1NCCc2[nH]c3c(c21)CCc1cnc(-c2ccccc2F)cc1-3 | 1500 | 
6 | 950 (≈ 382 µg/mL) |  | CCN1CC2(CNC(=O)c3c2[nH]c2c3CCc3cnc(-c4ccccc4F)cc3-2)C1 | 700 | 
7 |  |  | O=C1NCC2(CNC2)c2[nH]c3c(c21)CCc1cnc(-c2cccc(F)c2)cc1-3 | 200 | 
8 |  |  | CN1CC2(CNC(=O)c3c2[nH]c2c3CCc3cnc(-c4ccc(OCCN5CCOCC5)cc4)nc3-2)C1 | 100 | 
9 | > 1000 | 6000 | CN1CC2(CNC(=O)c3c2[nH]c2c3CCc3cnc(-c4ccccc4F)cc3-2)C1 | 100 | 90
10 | < 4 |  | O=C1NC2(CC2)Cc2[nH]c3c(c21)CCc1cnc(-c2ccc(OCCN4CCOCC4)cc2)cc1-3 | 200 | 
11 | 10 (≈ 3.88 µg/mL) | 1000 | CN1CC2(CNC(=O)c3c2[nH]c2c3CCc3cnc(-c4cccc(F)c4)cc3-2)C1 | 200 | 0
12 |  |  | O=C1NCC2(CN(CCF)C2)c2[nH]c3c(c21)CCc1cnc(-c2ccccc2F)cc1-3 | 1500 | 
13 | 41 (≈ 16.5 µg/mL) |  | CN1CC2(CNC(=O)c3c4c(n(C)c32)-c2cc(-c3ccccc3F)ncc2CC4)C1 | 1100 | 
14 | 40 (≈ 16 µg/mL) | 100 | COc1ccc(-c2cc3c(cn2)CCc2c-3[nH]c3c2C(=O)NCC32CN(C)C2)cc1 | 60 | 0
15 | 47 (≈ 18.3 µg/mL) | 600 | CN1CC2(CNC(=O)c3c2[nH]c2c3CCc3cnc(-c4ccc(F)nc4)cc3-2)C1 | 100 | 26
16 | < 4 |  | O=C1NC2(CC2)Cc2[nH]c3c(c21)CCc1cnc(-c2ccc(OCCN4CCOCC4)cc2)nc1-3 | 300 | 
17 | < 4 |  | COc1ccc(-c2cc3c(cn2)CCc2c-3[nH]c3c2C(=O)NC2(C3)CN(C)C2)cc1 | 1100 | 
18 | 43 (≈ 17.3 µg/mL) |  | COc1ccc(-c2ncc3c(n2)-c2[nH]c4c(c2CC3)C(=O)NCC42CN(C)C2)cc1 | 100 | 
19 | < 4 | 1900 | O=C1NCC2(CC2)c2[nH]c3c(c21)CCc1cnc(-c2ccc(F)nc2)cc1-3 | 700 | 30
20 |  |  | COCCCOc1cncc(-c2cc3c(cn2)CCc2c-3[nH]c3c2C(=O)NCC32CN(C)C2)c1 | 700 | 
21 | 24 (≈ 9.99 µg/mL) |  | CC(=O)N1CC2(CNC(=O)c3c2[nH]c2c3CCc3cnc(-c4ccccc4F)cc3-2)C1 | 6500 | 
22 | < 4 |  | COc1ccc(-c2ncc3c(n2)-c2[nH]c4c(c2CC3)C(=O)NC2(CC2)C4)cc1 |  | 
23 | < 4 | 25000 | COc1ccc(-c2cc3c(cn2)CCc2c-3[nH]c3c2C(=O)NC2(CC2)C3)cc1 | 200 | 81
